Experimental findings from patent publication US20240124460A1, “METHODS AND COMPOSITIONS FOR TARGETED PROTEIN DEGRADATION” (Ranok Therapeutics (Hangzhou) Co. Ltd., priority 2020, published 2024) are described below.

One assay addresses T1, HSP90α protein (Homo sapiens, UniProt P07900).
T1 construct: purchased BPS Bioscience #50298
The assay can be described thus: HSP90α-binding FP (BODIPY) assay. To be noted: FP competition with BODIPY-labeled RNK04010. The method, boiled down: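 Fluorescence polarization measured competition with N-terminal human HSP90α, using either FITC-geldanamycin or BODIPY-labelled triazolone RNK04010 as tracer (5 nM final each). Compounds were tested in 2.5-fold dilutions from 20 μM to 5.2 nM, with incubation at 25 °C for 120 min (FITC) or 300 min (BODIPY).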

The subject of assay [1] is U-87 MG human glioblastoma. Briefly: U87 MG CCK-8 proliferation assay. Type of assay: cell-based. To be noted: U-87 MG cells, read-out: U87MG CCK-8. In short, it runs like this:
(§1)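 Cells cultured per ATCC recommendations and treated with 3-fold serial dilutions of compound from 20 μM to 1.02 nM. Viability by CCK-8 absorbance; % inhibition computed relative to DMSO-treated cells, with cell-free medium plus DMSO as blank.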

Another assay deals with MAPK7 (Homo sapiens, UniProt Q13164). The assay can be described thus: MAPK7 kinase assay (ADP-Glo). Type of assay: biochemical. Further details: purchased Carna Biosciences #04-146. The settings on record: ATP 340 μM. The protocol: The inhibition of MAPK7 kinase activity by test compounds was measured by the ADP-Glo Kinase Assay (Promega, #V6930), following the manufacturer's instructions, except as noted. 3-fold serial dilutions of each test compound were prepared ranging from 50 μM to 2.54 nM. Also, as a positive control, a 4-fold serial dilution of the MAPK7 inhibitor, XMD17-109 (MedChemExpress, #HY-15665) was prepared ranging from 10 μM to 0.04 nM. In brief, in 384-well plates, test compounds were added to the kinase reaction mix containing recombinant MAPK7 protein (Carna Biosciences, #04-146; 20 nM final concentration), myelin basic protein (SignalChem Biotech, #M42-54G; 0.1 mg/ml final concentration) and ATP (340 μM final concentration), then mixed by shaking and incubated with ADP-Glo Reagent and Kinase Detection Reagent. Luminescence was measured on a BioTek plate reader.
Lumpositive: The average ratio for 10 wells of positive controls (10 μM XMD17-109) across the plate.
Lumvehicle: The average ratio for 10 wells of negative controls (0.5% DMSO) across the plate.
On the technique in general: In ADP-Glo the light output rises with the ADP produced.

Assay [2] deals with MV-4-11 human acute myeloid leukemia. The assay can be described thus: MV-4-11 CCK-8 proliferation assay. Type of assay: cell-based. The settings on record: MV-4-11 cells, 72 hr. The method, boiled down: as §1
Background: Tetrazolium dyes change colour on reduction, which living cells bring about.

The test system of the next assay is ERBB2. The assay can be described thus: ERBB2 (HER2) flow cytometry protein degradation assay in BT-474 cells. Format: cell-based, human. To be noted: DC50, BT-474 cells, 24 hr. In short, it runs like this:
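BT-474 cells trypsinised after compound treatment and stained with PE-conjugated anti-ERBB2 antibody, 30 min at 25° C in the dark, then fixed in 1% paraformaldehyde for flow cytometry. % inhibition = 100−(D−B)/(S−B)*100, using treated, untreated-stained and unstained cell fluorescence.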

Where two headings read alike, the source gives them in different places.

MAPK7, sequence (Q13164 whole entry): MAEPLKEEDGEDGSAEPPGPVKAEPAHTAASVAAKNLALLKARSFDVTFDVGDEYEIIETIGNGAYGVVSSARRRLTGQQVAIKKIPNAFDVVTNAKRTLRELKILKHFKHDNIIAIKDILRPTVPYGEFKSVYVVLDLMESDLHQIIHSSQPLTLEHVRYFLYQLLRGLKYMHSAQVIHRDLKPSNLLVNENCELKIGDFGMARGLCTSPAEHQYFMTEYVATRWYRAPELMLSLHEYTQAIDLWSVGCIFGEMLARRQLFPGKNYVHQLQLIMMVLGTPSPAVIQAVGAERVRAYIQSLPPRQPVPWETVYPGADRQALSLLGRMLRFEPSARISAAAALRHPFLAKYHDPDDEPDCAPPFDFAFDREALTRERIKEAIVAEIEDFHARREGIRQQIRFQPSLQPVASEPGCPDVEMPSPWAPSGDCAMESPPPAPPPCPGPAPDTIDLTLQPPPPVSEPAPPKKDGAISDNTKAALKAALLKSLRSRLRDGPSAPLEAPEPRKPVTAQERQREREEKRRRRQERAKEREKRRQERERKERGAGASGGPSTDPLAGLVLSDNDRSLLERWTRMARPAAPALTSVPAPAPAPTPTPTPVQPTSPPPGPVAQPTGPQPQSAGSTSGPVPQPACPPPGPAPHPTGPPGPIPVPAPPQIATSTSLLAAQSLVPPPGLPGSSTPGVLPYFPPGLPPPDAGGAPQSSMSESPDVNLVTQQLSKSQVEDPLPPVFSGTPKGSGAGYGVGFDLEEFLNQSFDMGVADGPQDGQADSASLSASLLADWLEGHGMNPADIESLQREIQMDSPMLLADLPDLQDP

One may read the IC50 as the concentration that gives 50% inhibition. Low values mean higher potency, high ones lower potency. Take `CCOc1cc(N2CCC(C(=O)N3CCC(N4CCN(Cc5ccc(-n6c(O)nnc6-c6cc(C(C)C)c(O)cc6O)cc5)CC4)CC3)CC2)ccc1Nc1ncc2c(n1)N(C)c1ccccc1C(=O)N2C.Cl` [Compound 042, 2-((4-(4-(4-(4-(4-(3-(2,4-dihydroxy-5-isopropylphenyl)-5-hydroxy-4H-1,2,4-triazol-4-yl)benzyl)piperazin-1-yl)piperidine-1-carbonyl)piperidin-1-yl)-2-ethoxyphenyl)amino)-5,11-dimethyl-5H-benzo[e]pyrimido[5,4-b][1,4]diazepin-6(11H)-one]: the 50% inhibitory concentration (IC50) on HSP90α protein was less than 0.1 µM; at MAPK7, more than 1 µM. The EC50 in assay [1] (72 hr) and in assay [2] was less than 0.1 µM in each case. In the assay on ERBB2, the ERBB2 degradation entry is reported as “B (DC50 = 100-1000 nM)”.
On to `CCOc1cc(N2CCC(C(=O)N3CCN(Cc4ccc(-n5c(O)nnc5-c5cc(C(C)C)c(O)cc5O)cc4)CC3)CC2)ccc1N(C)c1ncc2c(n1)N(C)c1ccccc1C(=O)N2C` [Compound 047, 2-((4-(4-(4-(4-(3-(2,4-dihydroxy-5-isopropylphenyl)-5-hydroxy-4H-1,2,4-triazol-4-yl)benzyl)piperazine-1-carbonyl)piperidin-1-yl)-2-ethoxyphenyl)(methyl)amino)-5,11-dimethyl-5,11-dihydro-6H-benzo[e]pyrimido[5,4-b][1,4]diazepin-6-one], for which the IC50 at HSP90α protein was 0.1 to 1 µM; on MAPK7 it was more than 1 µM. Further, the EC50 in assay [1] (Homo sapiens, U-87 MG, 72 h) was 0.1 to 1 µM; in assay [2] (Homo sapiens, MV4-11) it was less than 0.1 µM. In addition, the ERBB2 degradation result in the assay with ERBB2 is given as “B (DC50 = 100-1000 nM)”.
Consider `CCNC(=O)c1nnc(-c2cc(CC)c(O)cc2O)n1-c1ccc(CN2CCN(CC3CCN(C(=O)C4CCN(c5ccc(Nc6ncc7c(n6)N(S(C)(=O)=O)c6ccccc6C(=O)N7C)c(OCC)c5)CC4)CC3)CC2)cc1.Cl` [Compound 096, 4-(4-((4-((1-(1-(3-ethoxy-4-((5-methyl-11-(methylsulfonyl)-6-oxo-6,11-dihydro-5H-benzo[e]pyrimido[5,4-b][1,4]diazepin-2-yl)amino)phenyl)piperidine-4-carbonyl)piperidin-4-yl)methyl)piperazin-1-yl)methyl)phenyl)-N-ethyl-5-(5-ethyl-2,4-dihydroxyphenyl)-4H-1,2,4-triazole-3-carboxamide], for which the half-maximal inhibitory concentration (IC50) on HSP90α protein and at MAPK7 was less than 0.1 µM throughout. The EC50 in assay [1] (Homo sapiens, U-87 MG, 72 h) was less than 0.1 µM; in assay [2] (Homo sapiens, MV4-11), less than 0.1 µM. In addition, the ERBB2 degradation result in the assay with ERBB2 is “B (DC50 = 100-1000 nM)”.
As to `CCOc1cc(N2CCC(C(=O)N3CCC(CN4CCN(Cc5ccc(-n6c(O)nnc6-c6cc(C(C)C)c(O)cc6O)cc5)CC4)CC3)CC2)ccc1N(CC)c1ncc2c(n1)N(S(C)(=O)=O)c1ccccc1C(=O)N2C` [Compound 099, 2-((4-(4-(4-((4-(4-(3-(2,4-dihydroxy-5-isopropylphenyl)-5-hydroxy-4H-1,2,4-triazol-4-yl)benzyl)piperazin-1-yl)methyl)piperidine-1-carbonyl)piperidin-1-yl)-2-ethoxyphenyl)(ethyl)amino)-5-methyl-11-(methylsulfonyl)-5,11-dihydro-6H-benzo[e]pyrimido[5,4-b][1,4]diazepin-6-one], the values for the IC50 on HSP90α protein and at MAPK7 were less than 0.1 µM and more than 1 µM, respectively. The EC50 in assay [1] (Homo sapiens, U-87 MG, 72 h) is less than 0.1 µM; in assay [2] (Homo sapiens, MV4-11) it was less than 0.1 µM. Further, in the assay with ERBB2, the ERBB2 degradation result is reported as “B (DC50 = 100-1000 nM)”.
Consider `CCOc1cc(N2CCC(C(=O)NCCOCCNC(=O)O[C@H]3CC[C@H](Nc4cc(-n5nc(C(F)(F)F)c6c5CC(C)(C)CC6=O)ccc4C(N)=O)CC3)CC2)ccc1Nc1ncc2c(n1)N(C)c1ccccc1C(=O)N2C` [Compound 103, (1R,4R)-4-((2-carbamoyl-5-(6,6-dimethyl-4-oxo-3-(trifluoromethyl)-4,5,6,7-tetrahydro-1H-indazol-1-yl)phenyl)amino)cyclohexyl (2-(2-(1-(4-((5,11-dimethyl-6-oxo-6,11-dihydro-5H-benzo[e]pyrimido[5,4-b][1,4]diazepin-2-yl)amino)-3-ethoxyphenyl)piperidine-4-carboxamido)ethoxy)ethyl)carbamate], for which the half-inhibitory concentration (IC50) at HSP90α protein and on MAPK7 was more than 1 µM in each case. Further, the EC50 in assay [1] (Homo sapiens, U-87 MG, 72 h) was more than 1 µM; in assay [2] (Homo sapiens, MV4-11), 0.1 to 1 µM. In addition, in the assay on ERBB2, the ERBB2 degradation entry is “C (DC50 > 1000 nM)”.
As to `CCOc1cc(N2CCC(C(=O)NCCOCCNC(=O)O[C@H]3CC[C@H](Nc4cc(-n5nc(C(F)(F)F)c6c5CC(C)(C)CC6=O)ccc4C#N)CC3)CC2)ccc1Nc1ncc2c(n1)N(S(C)(=O)=O)c1ccccc1C(=O)N2C` [Compound 111, (1R,4R)-4-((2-((12-azanylidene)-l3-methyl)-5-(6,6-dimethyl-4-oxo-3-(trifluoromethyl)-4,5,6,7-tetrahydro-1H-indazol-1-yl)phenyl)amino)cyclohexyl (2-(2-(1-(3-ethoxy-4-((5-methyl-11-(methylsulfonyl)-6-oxo-6,11-dihydro-5H-benzo[e]pyrimido[5,4-b][1,4]diazepin-2-yl)amino)phenyl)piperidine-4-carboxamido)ethoxy)ethyl)carbamate], the IC50 at HSP90α protein and on MAPK7 was more than 1 µM throughout. Besides, the EC50 in assay [1] (Homo sapiens, U-87 MG, 72 h) is more than 1 µM; in assay [2] (Homo sapiens, MV4-11), more than 1 µM.
On to `CCOc1cc(N2CCC(C(=O)N3CCC(CN4CCN(Cc5ccc(-n6c(O)nnc6-c6cc(C(C)C)c(O)cc6O)cc5)CC4)CC3)CC2)ccc1N(CC)c1ncc2c(n1)N(C)c1ccccc1C(=O)N2C` [Compound 133, 2-((4-(4-(4-((4-(4-(3-(2,4-dihydroxy-5-isopropylphenyl)-5-hydroxy-4H-1,2,4-triazol-4-yl)benzyl)piperazin-1-yl)methyl)piperidine-1-carbonyl)piperidin-1-yl)-2-ethoxyphenyl)(ethyl)amino)-5,11-dimethyl-5,11-dihydro-6H-benzo[e]pyrimido[5,4-b][1,4]diazepin-6-one], for which the values for the 50% inhibitory concentration (IC50) on HSP90α protein and on MAPK7 were less than 0.1 µM and more than 1 µM, respectively. For the same compound, the EC50 in assay [1] (Homo sapiens, U-87 MG, 72 h) is 0.1 to 1 µM; in assay [2] (Homo sapiens, MV4-11), less than 0.1 µM.
As to `CCNC(=O)c1nnc(-c2cc(CC)c(O)cc2O)n1-c1ccc(CN2CCN(CC3CCN(C(=O)C4CCN(c5ccc(N(CC)c6ncc7c(n6)N(S(C)(=O)=O)c6ccccc6C(=O)N7C)c(OCC)c5)CC4)CC3)CC2)cc1` [Compound 135, 4-(4-((4-((1-(1-(3-ethoxy-4-(ethyl(5-methyl-11-(methylsulfonyl)-6-oxo-6,11-dihydro-5H-benzo[e]pyrimido[5,4-b][1,4]diazepin-2-yl)amino)phenyl)piperidine-4-carbonyl)piperidin-4-yl)methyl)piperazin-1-yl)methyl)phenyl)-N-ethyl-5-(5-ethyl-2,4-dihydroxyphenyl)-4H-1,2,4-triazole-3-carboxamide], the values for the concentration for half-maximal inhibition (IC50) on HSP90α protein and on MAPK7 were less than 0.1 µM and more than 1 µM, respectively. The EC50 in assay [1] (Homo sapiens, U-87 MG, 72 h) is 0.1 to 1 µM; in assay [2] (Homo sapiens, MV4-11) it was less than 0.1 µM.
Take “(1R,4R)-4-((2-((12-azanylidene)-l3-methyl)-5-(6,6-dimethyl-4-oxo-3-(trifluoromethyl)-4,5,6,7-tetrahydro-1H-indazol-1-yl)phenyl)amino)cyclohexyl (2-(2-(1-(3-ethoxy-4-(ethyl(5-methyl-11-(methylsulfonyl)-6-oxo-6,11-dihydro-5H-benzo[e]pyrimido[5,4-b][1,4]diazepin-2-yl)amino)phenyl)piperidine-4-carboxamido)ethoxy)ethyl)carbamate [Compound 113]”: the IC50 at HSP90α protein and against MAPK7 was more than 1 µM throughout. Further, the EC50 in assay [1] (72 hr) and in assay [2] was more than 1 µM in each case.
As for “(1R,4R)-4-((2-cyano-5-(6,6-dimethyl-4-oxo-3-(trifluoromethyl)-4,5,6,7-tetrahydro-1H-indazol-1-yl)phenyl)amino)cyclohexyl (2-(2-(1-(4-((5,11-dimethyl-6-oxo-6,11-dihydro-5H-benzo[e]pyrimido[5,4-b][1,4]diazepin-2-yl)amino)-3-ethoxyphenyl)piperidine-4-carboxamido)ethoxy)ethyl)carbamate [Compound 109]”, the half-inhibitory concentration (IC50) at HSP90α protein and at MAPK7 was more than 1 µM each time. Besides, the EC50 in assay [1] (72 hr) and in assay [2] was more than 1 µM each time.
